In ChEMBL document CHEMBL1201862, “PubChem BioAssay data set” (2004):
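Interpolation was linear, between the two tested concentrations surrounding the appropriate level; five concentrations were tested over 48 hours in 96-well plates. GI50 = concentration required for 50% inhibition of growth.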 Calls of active or inactive are those of the source. No stated cut-off is given here; in the data, active = GI50 up to about 1.1 µM and inactive = higher.

How the values were obtained:
Experiment in all cases: inhibition of tumour cell growth, NCI panel, 48 h
MOLT-4 = test system: MOLT-4
SNB-75 = test system: SNB-75
MDA-MB-231 = test system: MDA-MB-231
HL-60 = test system: HL-60
BT-549 = test system: BT-549
HT-29 = test system: HT-29
MDA-MB-435 = test system: MDA-MB-435
HCT-116 = test system: HCT-116
NCI-H226 = test system: NCI-H226
SF-295 = test system: SF-295
CCRF-CEM = test system: CCRF-CEM
MDA-N = test system: MDA-N
NCI-H460 = test system: NCI-H460
UACC-257 = test system: UACC-257
OVCAR-3 = test system: OVCAR-3
A498 = test system: A498
OVCAR-5 = test system: OVCAR-5
COLO 205 = test system: COLO 205
Hs-578T = test system: Hs-578T
SK-MEL-5 = test system: SK-MEL-5
K562 = test system: K562
TK-10 = test system: TK-10
SNB-19 = test system: SNB-19
LOX IMVI = test system: LOX IMVI
A549 = test system: A549
OVCAR-4 = test system: OVCAR-4
HOP-62 = test system: HOP-62
SW-620 = test system: SW-620
HOP-92 = test system: HOP-92
U-251 = test system: U-251
NCI/ADR-RES = test system: NCI/ADR-RES
HCT-15 = test system: HCT-15
SN12C = test system: SN12C
NCI-H522 = test system: NCI-H522
M14 = test system: M14
DU-145 = test system: DU-145
CAKI-1 = test system: CAKI-1
PC-3 = test system: PC-3
NCI-H23 = test system: NCI-H23
SK-MEL-2 = test system: SK-MEL-2
OVCAR-8 = test system: OVCAR-8
KM12 = test system: KM12
SK-MEL-28 = test system: SK-MEL-28
SF-539 = test system: SF-539
MCF7 = test system: MCF7
SF-268 = test system: SF-268
ACHN = test system: ACHN
EKVX = test system: EKVX
786-0 = test system: 786-0
T47D = test system: T47D
UACC-62 = test system: UACC-62
RPMI-8226 = test system: RPMI-8226
RXF 393 = test system: RXF 393
UO-31 = test system: UO-31
IGROV-1 = test system: IGROV-1
HCC 2998 = test system: HCC 2998
SK-OV-3 = test system: SK-OV-3
Malme-3M = test system: Malme-3M

Measured: GI50

O=C(/C=C/c1ccccc1)CCN1CCN(CCC(=O)/C=C/c2ccccc2)CC1
10.9 µM: HCT-15
inactive: MOLT-4 4.47 µM | SNB-75 15.8 µM | MDA-MB-231 5.5 µM | HL-60 3.64 µM | BT-549 15.1 µM | HT-29 14.3 µM | MDA-MB-435 3.72 µM | HCT-116 2.16 µM | NCI-H226 16.2 µM | SF-295 17.2 µM | CCRF-CEM 3.29 µM | MDA-N 2.19 µM | NCI-H460 15.2 µM | UACC-257 11.5 µM | OVCAR-3 16.8 µM | A498 18.9 µM | OVCAR-5 16.7 µM | COLO 205 16.4 µM | Hs-578T 10.4 µM | SK-MEL-5 14.7 µM | K562 3.97 µM | TK-10 16.4 µM | SNB-19 17.6 µM | LOX IMVI 2.38 µM | A549 30.9 µM | OVCAR-4 16.5 µM | HOP-62 22.6 µM | SW-620 4.67 µM | HOP-92 19.6 µM | U-251 16.7 µM | NCI/ADR-RES 24.7 µM | SN12C 10.1 µM | NCI-H522 13.2 µM | M14 11.7 µM | DU-145 17.6 µM | CAKI-1 17.2 µM | PC-3 16.8 µM | NCI-H23 16 µM | SK-MEL-2 17.9 µM | OVCAR-8 16.3 µM | KM12 4.82 µM | SK-MEL-28 14.2 µM | SF-539 14.9 µM | MCF7 5.81 µM | SF-268 13.8 µM | ACHN 16 µM | EKVX 18.6 µM | 786-0 6.05 µM | T47D 14.9 µM | UACC-62 16.3 µM | RPMI-8226 > 100 µM | RXF 393 13.7 µM | UO-31 16.9 µM | IGROV-1 18.2 µM | HCC 2998 16.7 µM | SK-OV-3 13.5 µM | Malme-3M 16.2 µM

COc1ccc(C(F)(F)F)cc1NC(=O)O/N=C(/Cl)C(C)C
inactive: MOLT-4 2.05 µM | SNB-75 16.8 µM | MDA-MB-231 19.4 µM | HL-60 2.76 µM | BT-549 20.7 µM | HT-29 23.9 µM | MDA-MB-435 20.8 µM | HCT-116 16.4 µM | NCI-H226 17.7 µM | SF-295 > 47.1 µM | CCRF-CEM 2.24 µM | MDA-N 16.3 µM | NCI-H460 37.6 µM | UACC-257 19.7 µM | OVCAR-3 19.3 µM | A498 28.9 µM | OVCAR-5 20.6 µM | COLO 205 2.03 µM | Hs-578T 30.4 µM | SK-MEL-5 10.7 µM | K562 1.91 µM | TK-10 15.1 µM | SNB-19 18.7 µM | LOX IMVI 5.27 µM | A549 20.8 µM | OVCAR-4 19.1 µM | HOP-62 21.6 µM | SW-620 3.33 µM | HOP-92 7.33 µM | U-251 26.4 µM | NCI/ADR-RES 23.6 µM | SN12C 16.2 µM | NCI-H522 2.26 µM | M14 16.9 µM | DU-145 19.2 µM | CAKI-1 1.77 µM | PC-3 18.8 µM | NCI-H23 19.7 µM | SK-MEL-2 18.8 µM | OVCAR-8 21.9 µM | KM12 26.3 µM | SK-MEL-28 21.4 µM | SF-539 18.3 µM | MCF7 21.2 µM | SF-268 23.8 µM | ACHN 10.5 µM | EKVX 17.7 µM | 786-0 16.9 µM | T47D 20 µM | UACC-62 18.5 µM | RPMI-8226 1.71 µM | RXF 393 19.6 µM | UO-31 18.5 µM | IGROV-1 17.9 µM | HCC 2998 19.9 µM | SK-OV-3 > 47.5 µM | Malme-3M 9.62 µM
5.18 µM: HCT-15

CCOC(=O)/C(C(=O)Nc1ccc(F)cc1)=C(/N)N1CCOCC1
inactive: MOLT-4 > 100 µM | SNB-75 > 100 µM | MDA-MB-231 > 100 µM | HL-60 > 100 µM | BT-549 > 100 µM | HT-29 > 100 µM | MDA-MB-435 > 100 µM | HCT-116 > 100 µM | NCI-H226 > 100 µM | SF-295 > 100 µM | CCRF-CEM > 100 µM | MDA-N > 100 µM | NCI-H460 > 100 µM | UACC-257 > 100 µM | OVCAR-3 > 100 µM | A498 > 100 µM | OVCAR-5 > 100 µM | COLO 205 > 100 µM | Hs-578T > 100 µM | K562 > 100 µM | TK-10 > 100 µM | SNB-19 > 100 µM | LOX IMVI > 100 µM | A549 > 100 µM | OVCAR-4 > 100 µM | HOP-62 > 100 µM | SW-620 > 100 µM | U-251 > 100 µM | NCI/ADR-RES > 100 µM | SN12C > 100 µM | NCI-H522 > 100 µM | M14 > 100 µM | DU-145 > 100 µM | CAKI-1 > 100 µM | PC-3 > 100 µM | NCI-H23 > 100 µM | SK-MEL-2 > 100 µM | OVCAR-8 > 100 µM | KM12 > 100 µM | SK-MEL-28 > 100 µM | MCF7 > 100 µM | SF-268 > 100 µM | ACHN > 100 µM | EKVX > 100 µM | 786-0 > 100 µM | T47D > 100 µM | UACC-62 > 100 µM | RPMI-8226 > 100 µM | RXF 393 > 100 µM | IGROV-1 > 100 µM | HCC 2998 > 100 µM | SK-OV-3 > 100 µM | Malme-3M > 100 µM
> 100 µM: HCT-15
